Reference: US6518423B1, “Benzopiperidine derivatives” (Eisai Co., Ltd., priority 1996, dated 2003)
Structures can show the parent of a compound that is named as a salt. Where two headings read alike, the source gives them in different places.

Key:
ICAM-1 = assay: Effect on the expression of ICAM-1 in human cultured umbilical cord endothelial cells (TNF-stimulated, ELISA); assay type: cell-based; settings: 1 ng/ml TNF, expression with TNF = 100%, without TNF = 0%, read-out: IC50 (50% inhibitory concentration of ICAM-1 expression)
Method: Effect on the Expression of ICAM-1 in Human Cultured Umbilical Cord Endothelial Cells
Examination was made on the effect on the expression of ICAM-1 which is one of adhesion molecules expressed on the surfaces of cultured endothelia cells. The endotheliall cells were suspended in an MCDB131 medium containing 10% of fetal calf serum and pipetted into a 96-well culture plate (10,000 cells/well). After culturing at 37° C. in the presence of 5% of carbon dioxide for 2 days, 1 ng/ml of a tumor necrosis factor (TNF) and a test compound were added to the 96-well culture plate. After culturing at 37° C. in the presence of 5% of carbon dioxide for 4 hours and then washing with a phosphate buffer once, 0.05% of glutaraldehyde was added thereto. Six minutes thereafter, the plate was washed twice and 1 μg/ml of a mouse antihuman ICAM-1 antibody was added thereto. After allowing to stand for 1 hour, it was washed twice and a peroxidase-labeled sheep antimouse immunoglobulin antibody was added thereto. After allowing to stand for 1 hour, it was washed twice and a color developing substrate for peroxidase (o-phenylenediamine) was added thereto. After allowing to stand at room temperature for 10 minutes, a 1 N solution of sulfuric acid was added thereto. Then the absorbance at 490 nm was measured with the use of an absorptiometer for 96-well plate. The value thus obtained was employed as an indication of the ICAM-1 expression.

[1] = tested on: Carrageenin-induced Rat Pleurisy; assay: Effect on carrageenin-induced rat pleurisy; assay type: in vivo; settings: total cell count in pleural exudate 5 hours after carrageenin; for inhibition in vivo at 10 mg/kg / Inhibitory ratio (%): dose 10 mg/kg orally 30 minutes before carrageenin; for inhibition in vivo at 30 mg/kg: dose 30 mg/kg orally 30 minutes before carrageenin; for Inhibitory ratio (%): 10 mg/kg
Method: Effect on Carrageenin-induced Rat Pleurisy
200 μl of a carrageenin solution (10 mg/ml in physiological saline) was intrathoracically injected into rats. Five hours thereafter, blood of the animals was collected from the abdominal aorta under etherization so as to induce death from blood loss. The exudate was taken up from the thoracic cavity and weighed with a single-pan balance. Further, the exudate was diluted with Turk's solution and the cells were counted by using a counting chamber. Next the total cell count was calculated by multiplying the cell count by the exudate volume. Thus the inhibitory ratio was calculated by taking the total cell count with the administration of carrageenin as 100% and that with the administration of physiological saline as 0%. Each test compound was suspended in a 0.5% solution of methylcellulose and orally administered at a dose of 5 ml/kg 30 minutes before the injection of carrageenin.

[2] = Homo sapiens, Endothelial cell, 4 h
[3] = Rattus norvegicus, po, 5 h, read-out: Inhibitory ratio (%)

Structure (SMILES) | IC50 (ICAM-1; [2]) [nM] | inhibition in vivo at 10 mg/kg [1, 3] [%] | melting point [°C] | also measured
CC(CCC1CCN(Cc2ccc3c(c2)Nc2nccnc2S3)CC1)C(=O)O (stereo not shown) [Example 729] | 1300 | 64 |  | 
O=C(O)CC1CCC2CN(Cc3ccc4c(c3)Nc3nccnc3S4)CC2C1 (stereo not shown) [Example 717] | 1150 | 32 |  | 
N#C/N=C(\N)Cc1ccc2c(c1)Nc1nccnc1S2 [Example 1487, N^2-Cyano-(10H-pyrazino[2,3-b][1,4]benzothiazin-8-yl)acetamidine] | 670 |  |  | inhibition in vivo at 30 mg/kg [1, 3]: 32%
O=C(O)C1CC2CC(C1)CN(Cc1ccc3c(c1)Nc1nccnc1S3)C2 (stereo not shown) [Example 98] | 2400 | 30 |  | 
O=C(O)CC1C2CCC1CN(Cc1ccc3c(c1)Nc1nccnc1S3)C2 (stereo not shown) [Example 71] | 800 | 94 |  | 
CC1(C(=O)O)C2CCCC1CN(Cc1ccc3c(c1)Nc1nccnc1S3)C2 (stereo not shown) [Example 113] | 2500 |  | 264 to 265 | 
O=C(O)C1CC2CC3CN(Cc4ccc5c(c4)Nc4nccnc4S5)CC(C2)C31 (stereo not shown) [Example 106] | 2800 | 46 |  | 
O=C(O)CC1C2CC(c3ccccc3)CC1CN(Cc1ccc3c(c1)Nc1nccnc1S3)C2 (stereo not shown) [Example 87] | 2900 |  | 128 to 131 | 
CN(C)S(=O)(=O)NC1CCN(Cc2ccc3c(c2)Nc2nccnc2S3)CC1 [Example 460] | 320 | 57 |  | 
CC1C(C)C2CN(Cc3ccc4c(c3)Nc3nccnc3S4)CC1C2CC(=O)O (stereo not drawn) [Example 24, (−)-(anti)-(6R*,7R*)-[3-(10H-Pyrazino[2,3-b][1,4]benzothiazin-8-ylmethyl)-6,7-dimethyl-3-azabicyclo[3.2.1]oct-8-yl]acetic acid] |  |  |  | IC50 (ICAM-1; 4 hours): 4100 nM; Inhibitory ratio (%) [1]: 54%
NCc1ccc2c(c1)Nc1nccnc1S2 [Example 1241, 8-(Aminomethyl)10H-pyrazino[2,3-b][1,4]benzothiazine hydrochloride] | 3600 |  |  | inhibition in vivo at 100 mg/kg ([1]; Rattus norvegicus, po, 5 h, dose 100 mg/kg orally 30 minutes before carrageenin, read-out: Inhibitory ratio (%)): 28%
CS(=O)(=O)NC1CCN(Cc2ccc3c(c2)Nc2nccnc2S3)CC1 [Example 402] | 320 | 57 |  | 
CC1CC(C)C2CN(Cc3ccc4c(c3)Nc3nccnc3S4)CC1C2CC(=O)O (stereo not shown) [Example 79] |  | 44 |  | 
CC(CCC1C2CN(Cc3ccc4c(c3)Nc3nccnc3S4)CC1C(C)CC2C)C(=O)O (stereo not shown) [Example 100] | 3800 |  | 110 to 115 | 
CC1CC(C)C2CN(Cc3ccc4c(c3)Nc3nccnc3S4)CC1C2CCCC(=O)O (stereo not shown) [Example 102] | 2600 |  | 98 to 105 | 
O=C(O)C=C1CC2CCC(C1)N2Cc1ccc2c(c1)Nc1nccnc1S2 [Example 118] | 1600 |  | 206 to 208 | 
O=C(O)CC1C2CCCCC1CN(Cc1ccc3c(c1)Nc1nccnc1S3)C2 (stereo not shown) [Example 80] | 4100 |  | 217 to 218 | 
CNc1ncnc2c1ncn2Cc1ccc2c(c1)Nc1nccnc1S2 [Example 1409] | 670 |  | 279 to 281 | 
O=C(O)C1(C2CCN(Cc3ccc4c(c3)Nc3nccnc3S4)CC2)CC1 [Example 698] | 490 | 26 |  | 
CNS(=O)(=O)NC1CCN(Cc2ccc3c(c2)Nc2nccnc2S3)CC1 [Example 403] | 340 | 35 |  | 
O=C(O)CC1C2CN(Cc3ccc4c(c3)Nc3nccnc3S4)CC1C21CCC1 (stereo not shown) [Example 85] | 6400 |  | 175 to 180 | 
O=C(O)C12CCCC(CN(Cc3ccc4c(c3)Nc3nccnc3S4)C1)C2 (stereo not shown) [Example 90] | 2800 |  | 186 to 188 | 
c1cncc(NCc2ccc3c(c2)Nc2nccnc2S3)c1 [Example 901, 8-[N-(Pyridin-3-yl)aminomethyl]-10H-pyrazino[2,3-b][1,4]benzothiazine] | 1800 |  |  | inhibition in vivo at 30 mg/kg [1, 3]: 38%

Structure (SMILES) | IC50 (ICAM-1; [2]) [nM] | inhibition in vivo at 10 mg/kg [1, 3] [%] | melting point [°C] | also measured
OC(c1cccnc1)c1ccc2c(c1)Nc1nccnc1S2 (stereo not shown) [Example 1145] | 770 | 29 |  | 
CC1C(C)C2CN(Cc3ccc4c(c3)Nc3nccnc3S4)CC1C2CC(=O)O (stereo not drawn) [Example 23, (+)-(anti)-(6R*,7R*)-[3-(10H-Pyrazino[2,3-b][1,4]benzothiazin-8-ylmethyl)-6,7-dimethyl-3-azabicyclo[3.2.1]oct-8-yl]acetic acid] |  | 52 |  | IC50 (ICAM-1; 4 hours): 1600 nM
O=C(O)c1ccc(OCCC2C3CCCC2CN(Cc2ccc4c(c2)Nc2nccnc2S4)C3)cc1 (stereo not shown) [Example 121] | 7400 | 70 |  | 
CC(C(=O)O)C1C2CCCC1CN(Cc1ccc3c(c1)Nc1nccnc1S3)C2 (stereo not shown) [Example 82] | 3400 |  |  | 
O=C(O)CC1CC2(CCN(Cc3ccc4c(c3)Nc3nccnc3S4)CC2)C1 [Example 677] | 900 | 76 |  | 
O=C(O)C1C2CCCC1CN(Cc1ccc3c(c1)Nc1nccnc1S3)C2 (stereo not shown) [Example 74] | 1900 |  | 272 to 275 | 
CC(C)(C)C1CC2CN(Cc3ccc4c(c3)Nc3nccnc3S4)CC(C1)C2CC(=O)O (stereo not shown) [Example 77] | 2800 |  | 138 to 140 | 
O=C(O)CC1C2CCCC1CN(Cc1ccc3c(c1)Nc1nccnc1S3)C2 (stereo not drawn) [Example 1568, (endo,anti)-[3-(10H-Pyrazino[2,3-b][1,4]benzothiazin-8-ylmethyl)-3-azabicyclo[3.3.1]non-9-yl]acetic acid] |  |  |  | IC50 (ICAM-1; 4 hours): 500 nM; inhibition in vivo at 30 mg/kg [1, 3]: 50%
O=C(O)C=C1C2CCC1CN(Cc1ccc3c(c1)Nc1nccnc1S3)C2 [Example 70] | 2800 |  | 268 to 271 | 
CC1CCC2CN(Cc3ccc4c(c3)Nc3nccnc3S4)CC1C2CC(=O)O (stereo not shown) [Example 91] | 2900 | 76 |  | 
CC1CC(C)C2CN(Cc3ccc4c(c3)Nc3nccnc3S4)CC1C2C(C)C(=O)O (stereo not drawn) [Example 31, (−)-(anti)-(6R*,8R*)-2-[3-(10H-pyrazino[2,3-b][1,4]benzothiazin-8-ylmethyl)-6,8-dimethyl-3-azabicyclo[3.3.1]non-9-yl]propanoic acid] |  |  |  | IC50 (ICAM-1; 4 hours): 1100 nM; Inhibitory ratio (%) [1]: 38%
O=C(O)CC12CCCC(CN(Cc3ccc4c(c3)Nc3nccnc3S4)C1)C2 (stereo not shown) [Example 104] | 2800 |  | 215 to 217 | 
O=C(O)Cc1ccc(C2CCN(Cc3ccc4c(c3)Nc3nccnc3S4)CC2)cc1 [Example 659] | 710 | 20 |  | 
O=C(O)CC1C2CCCC1CN(Cc1ccc3c(c1)Nc1nccnc1S3)C2 (stereo not drawn) [Example 15, (syn)-[3-(10H-Pyrazino[2,3-b][1,4]benzothiazin-8-ylmethyl)-3-azabicyclo[3.3.1]non-9-yl]acetic acid] |  | 64 |  | IC50 (ICAM-1; 4 hours): 2300 nM
CC1C(C)C2CN(Cc3ccc4c(c3)Nc3nccnc3S4)CC1C2CC(=O)O (stereo not shown) [Example 89] | 2800 | 83 |  | 
CC(C)(O)c1ncnc2c1ncn2Cc1ccc2c(c1)Nc1nccnc1S2 [Example 1439] | 490 |  |  | inhibition in vivo at 30 mg/kg [1, 3]: 77%
O=C(O)CC1C2CCCC1CN(Cc1ccc3c(c1)Nc1nccnc1S3)C2 (stereo not drawn) [Example 18, (anti)-[3-(10H-Pyrazino[2,3-b][1,4]benzothiazin-8-ylmethyl)-3-azabicyclo[3.3.1]non-9-yl]acetic acid] |  |  |  | IC50 (ICAM-1; 4 hours): 3500 nM; Inhibitory ratio (%) [1]: 67%
O=C(O)C1CC2(CCN(Cc3ccc4c(c3)Nc3nccnc3S4)CC2)C1 [Example 686] | 900 | 71 |  | 
CC(C(=O)O)C1C2CCCC1CN(Cc1ccc3c(c1)Nc1nccnc1S3)C2 (stereo not shown) [Example 83] |  | 34 |  | IC50 (ICAM-1; 4 hours): 2800 nM
CC1CC(C)C2CN(Cc3ccc4c(c3)Nc3nccnc3S4)CC1C2CCC(=O)O (stereo not shown) [Example 101] | 2600 | 48 |  | 
COC1(CC(=O)O)C2CCCC1CN(Cc1ccc3c(c1)Nc1nccnc1S3)C2 (stereo not shown) [Example 105] |  |  | 225 to 228 | IC50 (ICAM-1; 4 hours): 5800 nM
COC1(CC(=O)O)C2CCCC1CN(Cc1ccc3c(c1)Nc1nccnc1S3)C2 (stereo not shown) [Example 103] | 6600 |  | 217 to 219 | 
